Publication PMC10967822, “Antimicrobial Indole-3-Carboxamido-Polyamine Conjugates Target Bacterial Membranes and Are Antibiotic Potentiators” (Biomolecules, 2024)
≈ marks a conversion by molar mass, not a printed value.

Key:
E. coli ATCC 25922 [1] = experiment: MIC, broth dilution, E. coli; format: cell-based, Escherichia coli; conditions: Escherichia coli, ATCC25922; E. coli ATCC 25922, 18 h
[2] = system: C. neoformans ATCC 208821; experiment: Antifungal MIC (CO-ADD), C. neoformans; format: cell-based; conditions: Cryptococcus neoformans, ATCC208821, top dose 32 µg/mL
Procedure: (§1) For the antifungal assay, fungi strains were cultured for 3 days on YPD agar at 30 °C. A yeast suspension of 1 × 10^6 to 5 × 10^6 CFU/mL was prepared from five colonies. These stock suspensions were diluted with a yeast nitrogen base (YNB) (Becton Dickinson, 233520, New South Wales, Australia) broth to a final concentration of 2.5 × 10^3 CFU/mL. […] The plates were covered and incubated at 35 °C for 36 h without shaking. C. albicans MICs were determined by measuring the absorbance at OD530. For C. neoformans, resazurin was added at a 0.006% final concentration to each well and incubated for a further 3 h before the MICs were determined by measuring the absorbance at OD570–600. […] Fluconazole was used as a positive fungal inhibitor standard for C. albicans and C. neoformans. […] The quality control (QC) of the assays was determined by the antimicrobial controls and the Z′-factor (using positive and negative controls).

P. aeruginosa ATCC 27853 [3] = experiment: Doxycycline potentiation against P. aeruginosa; format: cell-based, Pseudomonas aeruginosa; conditions: doxycycline at 2 µg/mL (4.5 µM); for Dox/Pa fold-change (intrinsic MIC / combination MIC): P. aeruginosa ATCC 27853; for Dox/Pa: concentration required to restore doxycycline activity (combination MIC): P. aeruginosa ATCC 27853, mean n = 3
Excerpt: (§2) These measurements were independently repeated in triplicate.

[4] = Cytotoxicity assay (resazurin); format: cell-based; conditions: human, HEK293 cells, mean n = 2
P. aeruginosa ATCC 27853 [5] = experiment: MIC, broth dilution, P. aeruginosa; format: cell-based, Pseudomonas aeruginosa; conditions: Pseudomonas aeruginosa, ATCC27853; P. aeruginosa ATCC 27853, 18 h; read-out: MIC Pa
[6] = system: K. pneumoniae ATCC 700603; experiment: MIC, broth microdilution (CO-ADD), K. pneumoniae; conditions: top dose 32 µg/mL
MRSA ATCC 43300 = experiment: MIC, broth microdilution (CO-ADD), MRSA; format: cell-based, methicillin-resistant S. aureus; conditions: Staphylococcus aureus; MRSA ATCC 43300; top dose 32 µg/mL; read-out: MIC MRSA
S. aureus ATCC 25923 = experiment: MIC, broth dilution, S. aureus; format: cell-based, Staphylococcus aureus; conditions: Staphylococcus aureus, ATCC25923; S. aureus ATCC 25923, 18 h; read-out: MIC Sa
C. albicans ATCC 90028 = experiment: Antifungal MIC (CO-ADD), C. albicans; format: cell-based; conditions: Candida albicans, ATCC90028, top dose 32 µg/mL
Procedure: as §1

E. coli ATCC 25922 [7] = experiment: Erythromycin potentiation against E. coli; format: cell-based, Escherichia coli; conditions: erythromycin at 2 µg/mL (2.7 µM); for Erythro/Ec fold-change (intrinsic MIC / combination MIC): E. coli; for Erythro/Ec: concentration required to restore erythromycin activity (combination MIC): mean n = 3
Excerpt: as §2

human red blood cells = experiment: Hemolytic assay; format: cell-based; conditions: 10% hemolytic activity, mean n = 2
Procedure: Human whole blood was washed three times with three volumes of 0.9% NaCl and then resuspended in the same solution to a concentration of 0.5 × 10^8 cells/mL, as determined by the manual cell count in a Neubauer hemocytometer. The washed cells were then added to the 384-well compound-containing plates for a final volume of 50 μL. After a 10 min shake on a plate shaker, the plates were then incubated for 1 h at 37 °C. After incubation, the plates were centrifuged at 1000× g for 10 min to pellet cells and debris; 25 μL of the supernatant was then transferred to a polystyrene 384-well assay plate. Hemolysis was determined by measuring the supernatant absorbance at […] (OD405). The absorbance was measured using a Tecan M1000 Pro monochromator plate reader. HC10 and HC50 (concentrations at 10% and 50% hemolysis, respectively) were calculated by a curve fitting the inhibition values vs. log (concentration) using a sigmoidal dose–response function with variable fitting values for the top, bottom, and slope.

A. baumannii ATCC 19606 = experiment: MIC, broth microdilution (CO-ADD), A. baumannii; format: cell-based, Acinetobacter baumannii; conditions: Acinetobacter baumannii, ATCC19606, top dose 32 µg/mL

| SMILES | MIC (E. coli ATCC 25922 [1]) [µM] | MIC [2] [µM] | Dox/Pa fold-change (intrinsic MIC / combination MIC) (P. aeruginosa ATCC 27853 [3]) [fold] | Dox/Pa: concentration required to restore doxycycline activity (combination MIC) (P. aeruginosa ATCC 27853 [3]) [µM] | IC50 at 20 h [4] [µM] | MIC (P. aeruginosa ATCC 27853 [5]) [µM] | MIC Kp [6] [µM] | MIC (MRSA ATCC 43300) [µM] | MIC (S. aureus ATCC 25923) [µM] | MIC (C. albicans ATCC 90028) [µM] | Erythro/Ec fold-change (intrinsic MIC / combination MIC) (E. coli ATCC 25922 [7]) [fold] | Erythro/Ec: concentration required to restore erythromycin activity (combination MIC) (E. coli ATCC 25922 [7]) [µM] | Hemolysis HC10 (human red blood cells) [µM] | MIC (A. baumannii ATCC 19606) [µM] |
| --- | --- | --- | --- | --- | --- | --- | --- | --- | --- | --- | --- | --- | --- | --- |
| O=C(NCCCNCCCCCCCCNCCCNC(=O)c1c[nH]c2ccc(Br)cc12)c1c[nH]c2ccc(Br)cc12 [Compound 13d] | 53.7 (≈ 37.7 µg/mL) | ≤ 0.27 | 8 | 13.4 | > 34 | 107 (≈ 75.2 µg/mL) | >34 | ≤ 0.27 | 3.36 (≈ 2.36 µg/mL) | ≤ 0.27 | 8 | 6.72 | >34 | ≤ 0.27 |
| Cc1cccc2c(C(=O)NCCCNCCCCCCCCCCCCNCCCNC(=O)c3c[nH]c4c(C)cccc34)c[nH]c12.O=C(O)C(F)(F)F.O=C(O)C(F)(F)F [Compound 18f] | 117 | ≤ 0.29 | 4 | 29.2 | > 37 | 117 | >37 | ≤ 0.29 | 117 | ≤ 0.29 | 1 | 116.7 | >37 | 9.33 |
| O=C(NCCCNCCCCCCCCCCCCNCCCNC(=O)c1c[nH]c2ccccc12)c1c[nH]c2ccccc12.O=C(O)C(F)(F)F.O=C(O)C(F)(F)F [Compound 12f] | 15.1 | ≤ 0.3 | 8 | 15.1 | > 39 | 121 | >39 | ≤ 0.3 | 3.77 | ≤ 0.3 | 2 | 7.54 | >39 | 4.82 |
| COc1cccc2c(C(=O)NCCCNCCCCCCCCCCNCCCNC(=O)c3c[nH]c4c(OC)cccc34)c[nH]c12.O=C(O)C(F)(F)F.O=C(O)C(F)(F)F [Compound 17e] | > 232 | ≤ 0.29 | > 4 | 58.1 | > 37 | > 232 | >37 | ≤ 0.29 | 232 | > 37 | 1 | > 232 | >37 | > 37 |
| O=C(NCCCNCCCCCCCCCCNCCCNC(=O)c1c[nH]c2ccccc12)c1c[nH]c2ccccc12.O=C(O)C(F)(F)F.O=C(O)C(F)(F)F [Compound 12e] | 125 | ≤ 0.31 | > 4 | 62.4 | > 40 | > 250 | >40 | ≤ 0.31 | 31.2 | > 40 | 2 | 62.4 | >40 | > 40 |
| Cc1ccc2[nH]cc(C(=O)NCCCNCCCCCCCCNCCCNC(=O)c3c[nH]c4ccc(C)cc34)c2c1 [Compound 15d] | 125 (≈ 71.6 µg/mL) | ≤ 0.31 | 8 | 31.2 | > 40 | 250 (≈ 143 µg/mL) | >40 | ≤ 0.31 | 31.2 (≈ 17.9 µg/mL) | > 40 | 4 | 31.2 | >40 | > 40 |
| Cc1ccc2[nH]cc(C(=O)NCCCNCCCCCCCCCCNCCCNC(=O)c3c[nH]c4ccc(C)cc34)c2c1 [Compound 15e] | 30.2 (≈ 18.1 µg/mL) | ≤ 0.3 | 4 | 15.1 | > 39 | 60.3 (≈ 36.2 µg/mL) | >39 | ≤ 0.3 | 3.77 (≈ 2.27 µg/mL) | ≤ 0.3 | 4 | 7.54 | >39 | 19.3 (≈ 11.6 µg/mL) |
| Cc1cccc2c(C(=O)NCCCNCCCCCCNCCCNC(=O)c3c[nH]c4c(C)cccc34)c[nH]c12 [Compound 18b] | 129 (≈ 70.3 µg/mL) | ≤ 0.32 | > 8 | 32.4 | > 41 | > 259 | >41 | > 41 | 129 (≈ 70.3 µg/mL) | > 41 | 4 | 32.4 | >41 | > 41 |
| Cc1cccc2c(C(=O)NCCCNCCCCCCCNCCCNC(=O)c3c[nH]c4c(C)cccc34)c[nH]c12 [Compound 18c] | > 254 | ≤ 0.32 | 16 | 15.9 | > 41 | 254 (≈ 142 µg/mL) | >41 | ≤ 0.32 | > 254 | > 41 | 1 | > 254 | >41 | > 41 |
| COc1ccc2[nH]cc(C(=O)NCCCNCCCCCCCCNCCCNC(=O)c3c[nH]c4ccc(OC)cc34)c2c1 [Compound 14d] | 120 (≈ 72.6 µg/mL) | ≤ 0.3 | > 8 | 30.0 | > 38 | > 240 | >38 | 19.2 (≈ 11.6 µg/mL) | 60 (≈ 36.3 µg/mL) | > 38 | 0.5 | 240 | >38 | > 38 |
| COc1ccc2[nH]cc(C(=O)NCCCNCCCCCCNCCCNC(=O)c3c[nH]c4ccc(OC)cc34)c2c1 [Compound 14b] | 248 (≈ 143 µg/mL) | ≤ 0.31 | > 8 | 31.1 | > 40 | > 248 | >40 | ≤ 0.31 | 248 (≈ 143 µg/mL) | > 40 | 4 | 62.1 | >40 | > 40 |
